# Test results taken from patent US6706728B2, “Systems and methods for treating a mucosal surface” (3M Innovative Properties Company, priority 1999, dated 2004).
# Assays:
# Assay type in all cases: in vivo, human
# [1] = Single dose cervical application study: systemic exposure (PK) of imiquimod in serum
# Experimental: (§1) This was a single dose, randomized, double-blind, placebo controlled dose escalation study which evaluated five doses of imiquimod. 50, 100, 150, 200 and 250 mg of imiquimod in a cream formulation were applied to the cervix for eight hours. Each dose group was composed of 8 subjects (6 active and 2 placebo), with two subjects treated as dose leaders, and the remaining six subjects were treated after an acceptable response by the dose leaders. Safety was assessed by adverse events (AE's), laboratory tests, and colposcopy with photodocumentation of the cervix at pre-dose and 24 hours post-dose, and 48 hours post-dose if required. Systemic exposure (PK) was determined by measuring imiquimod and metabolites through 48 hours post-dose and the PD response was determined by serum analysis for the cytokines: tumor necrosis factor-α (TNF-α), interferon-α (IFN-α), interleukin-1 receptor […] (IL-1RA), interleukin-6 (IL-6), neopterin (NPT) and 2′5′ oligoadenlyate synthetase (2′5′ AS) during dosing and selected times during the 48 hours post-dose. Statistical tests to evaluate AE's and demographics, laboratory tests, vital signs and ECG's were Fisher's Exact, Wilcoxon Rank-Sum and Kruskall Wallis Tests respectively. Cytokine changes between dose groups were compared using Wilcoxon Rank-Sum and changes from baseline were evaluated using Spearman Rank Correlation.
# [2] = tested on: serum cytokines (TNF-α, IFN-α, IL-1RA, IL-6, NPT, 2′5′ AS); experiment: Single dose cervical application study: PD response by serum analysis for cytokines
# Experimental: as §1
# cervix = experiment: Single dose cervical application study: safety (adverse events, pelvic and colposcopic examination)
# Experimental: as §1
# [3] = single doses up to 250 mg applied to the cervix for 8 hours, healthy volunteers
# [4] = serum, 150 mg, 200 mg and 250 mg groups
compound,measurement,setting,value
"CC(C)Cn1cnc2c(N)nc3ccccc3c21 [imiquimod, 1-(2-methylpropyl)-1H-imidazo[4,5-c] quinolin-4-amine]",serum levels of imiquimod,"[1]; single dose 50-250 mg imiquimod cream (Formulation A) applied to the cervix for 8 hours, through 48 hours post-dose, quantifiable >5 ng/ml",≤ 5 ng/mL
same,systemic exposure,[1]; [3],minimal systemic exposure
same,systemic concentration of certain cytokines,[2]; cervical application of a dose ≧150 mg,increases
same,2′5′ AS change from baseline,[2]; [4],Significant changes from baseline
same,IL-1RA change from baseline,[2]; [4],Significant changes from baseline
same,NPT (neopterin) change from baseline,[2]; [4],Significant changes from baseline
same,IFN change from baseline,"[2]; serum, 250 mg group",Significant changes from baseline
same,IL-6 change from baseline,"[2]; serum, 250 mg group",Significant changes from baseline
same,time to resolution of cervical reactions,cervix; 250 mg dose group,≤ 48 h
same,subjects experiencing cervical changes of minor small vesicles or smaller ulcer,"cervix; 250 mg dose group, pelvic and colposcopic examination",2 of 6
same,overall safety,cervix; [3],safe
